Values of other authors in patent US20240423897A1, “LONGEVITY SERUM” (Wellbeam Consumer Health Intermediate, LLC, priority 2023, published 2024).

Test system: skin
Conditions: topical application

In the case of `C=C[C@@](C)(/C=C/c1ccc(O)cc1)CCC=C(C)C` [bakuchiol], the “effect on lines and wrinkles, pigmentation, elasticity, firmness, and photo-damage” value is listed as “significant improvement” and the “irritating effect on the skin” value is listed as “no irritating effect”.
